Molecular target: mGluR8b (Homo sapiens, UniProt O00222)
Assay: […]GTPγS binding, inhibition of the potentiation by AZ12216052
Assay type: cell-based

Sequence of mGluR8b (O00222 34-908 isoform O00222-2): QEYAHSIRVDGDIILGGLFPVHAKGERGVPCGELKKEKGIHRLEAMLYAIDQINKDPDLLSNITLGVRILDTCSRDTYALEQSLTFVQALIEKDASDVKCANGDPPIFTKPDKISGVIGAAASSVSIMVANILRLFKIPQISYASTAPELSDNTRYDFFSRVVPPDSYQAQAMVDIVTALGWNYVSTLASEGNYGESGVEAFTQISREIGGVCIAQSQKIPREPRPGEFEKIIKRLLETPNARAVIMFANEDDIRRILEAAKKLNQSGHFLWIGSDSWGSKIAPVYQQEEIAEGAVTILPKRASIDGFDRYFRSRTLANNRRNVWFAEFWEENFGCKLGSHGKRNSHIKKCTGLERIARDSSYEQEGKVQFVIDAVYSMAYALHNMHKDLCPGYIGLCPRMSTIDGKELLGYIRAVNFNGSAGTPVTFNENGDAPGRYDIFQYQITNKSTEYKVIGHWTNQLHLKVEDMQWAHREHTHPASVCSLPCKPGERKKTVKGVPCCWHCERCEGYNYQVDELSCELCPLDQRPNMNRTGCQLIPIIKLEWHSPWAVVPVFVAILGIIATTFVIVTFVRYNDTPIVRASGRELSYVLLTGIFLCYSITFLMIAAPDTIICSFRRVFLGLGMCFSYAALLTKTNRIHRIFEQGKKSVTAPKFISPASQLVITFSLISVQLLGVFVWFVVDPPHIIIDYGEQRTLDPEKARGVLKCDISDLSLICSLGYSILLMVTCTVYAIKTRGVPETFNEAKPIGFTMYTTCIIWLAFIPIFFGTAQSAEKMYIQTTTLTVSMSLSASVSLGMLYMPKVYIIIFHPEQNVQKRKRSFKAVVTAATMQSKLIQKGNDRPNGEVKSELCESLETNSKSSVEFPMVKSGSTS

SMILES: NC(C(=O)O)(c1ccc(P(=O)(O)O)cc1)C1CC1 (racemic) [CPPG]
- [35S]GTPγS binding, inhibition of the potentiation by AZ12216052: The potentiator effect of AZ12216052 on mGluR8 is inhibited by group-II/III antagonists LY341495 and CPPG

— PMC2892883 (Behavioural brain research, 2010)
